Assay type in all cases: cell-based
Assay [1] concerns E. coli ATCC BAA-196_TEM-10. In words: MIC by broth microdilution (CLSI), E. coli ATCC BAA-196. To be noted: Escherichia coli. The method, then:
(§1) Measurement of a minimum growth inhibition concentration (MIC: μg/mL) was performed according to CLSI (Clinical and Laboratory Standards Institute) method, by broth microdilution method, using an inoculation microbe amount of 10000 cfu/well and cation-adjusted Mueller Hinton broth containing human-derived 20 μM apo-transferrin as a test medium.
(In broth dilution the organism is exposed to a series of concentrations in liquid medium.)

In another assay the test system is P. aeruginosa SR24. Briefly: MIC by broth microdilution (CLSI), P. aeruginosa SR24. To be noted: Pseudomonas aeruginosa. The method, then:
as §1

In assay [2] the test system is P. aeruginosa SR27001(MDRP, IMP-1+). In words: MIC by broth microdilution (CLSI), P. aeruginosa SR27001. To be noted: Pseudomonas aeruginosa, read-out: minimum growth inhibition concentration (MIC). The method, then:
as §1

For assay [3], the system named is K. pneumoniae ATCC 700603_SHV18. In words: MIC by broth microdilution (CLSI), K. pneumoniae ATCC 700603. To be noted: Klebsiella pneumoniae. How it is done: as §1
Where [4] appears, read: ATCCBAA196, read-out: minimum growth inhibition concentration (MIC).
[5] abbreviates: SR24, read-out: minimum growth inhibition concentration (MIC).
[6] abbreviates: ATCC700603, read-out: minimum growth inhibition concentration (MIC).
The mark [7] stands for this setting: ATCCBAA196, E. coli ATCC BAA-196, TEM-10, ESBL producing strain, 10000 cfu/well, cation-adjusted Mueller Hinton broth with 20 μM human apo-transferrin, read-out: minimum growth inhibition concentration (MIC).
Setting [8] is: P. aeruginosa SR24, Ceftazidime-sensitive strain, 10000 cfu/well, cation-adjusted Mueller Hinton broth with 20 μM human apo-transferrin, read-out: minimum growth inhibition concentration (MIC).
Setting [9] is: ATCC700603, K. pneumoniae ATCC 700603, SHV-18, ESBL producing strain, 10000 cfu/well, cation-adjusted Mueller Hinton broth with 20 μM human apo-transferrin, read-out: minimum growth inhibition concentration (MIC).
Where [10] appears, read: P. aeruginosa SR27001, MDRP, IMP-1, MBL producing carbapenem-resistant strain, 10000 cfu/well, cation-adjusted Mueller Hinton broth with 20 μM human apo-transferrin.

≈ marks a conversion by molar mass, not a printed value. Read-outs that look alike come from different tables or passages of the source.

Turning to `C[N+]1(CC2=C(C(=O)[O-])N3C(=O)[C@@H](NC(=O)/C(=N\OC(CNC(=O)c4ccc(O)c(O)c4Cl)C(=O)[O-])c4csc(N)n4)[C@H]3SC2)[C@@H]2CC[C@H]1C[C@@H](NC(=O)CC[C@H](N)C(=O)O)C2.[Na+]` (some centres unmarked) [Compound I-26], the MIC was found to be 1 µg/mL in assay [1] (setting [4]), 1 µg/mL in the assay on P. aeruginosa SR24 (setting [5]), 4 µg/mL in assay [2] and 1 µg/mL in assay [3] (setting [6]).
Consider `Nc1nc(/C(=N/OC(CNC(=O)c2ccc(O)c(O)c2Cl)C(=O)[O-])C(=O)N[C@@H]2C(=O)N3C(C(=O)[O-])=C(C[N+]45CCC(CC4)CC5)CS[C@H]23)ns1.[Na+]` (some centres unmarked) [Compound I-17], for which the MIC in assay [1] (setting [7]) stood at 4 µg/mL; in the assay on P. aeruginosa SR24 (setting [8]), 0.25 µg/mL; in assay [3] (setting [9]), 8 µg/mL.
As for `Nc1nc(/C(=N/OC(CNC(=O)c2ccc(O)c(O)c2Cl)C(=O)[O-])C(=O)N[C@@H]2C(=O)N3C(C(=O)[O-])=C(C[N+]4(CCNC(=O)C[C@@H](N)CC(=O)O)CCCC4)CS[C@H]23)cs1.[Na+]` (some centres unmarked) [Compound I-27], the MIC in assay [1] (setting [7]) was 2 µg/mL; with P. aeruginosa SR24 (setting [8]), 0.25 µg/mL; in assay [2] (setting [10]) it was 4 µg/mL; in assay [3] (setting [9]), 0.5 µg/mL.
In the same order, the values of `Nc1nc(/C(=N/OC(CNC(=O)c2ccc(O)c(O)c2Cl)C(=O)[O-])C(=O)N[C@@H]2C(=O)N3C(C(=O)[O-])=C(C[N+]4(CCNC(=O)C[C@@H](N)CC(=O)O)CCCC4)CS[C@H]23)c(Cl)s1.[Na+]` (some centres unmarked) [Compound I-30] are 0.5 µg/mL, 0.25 µg/mL, 8 µg/mL and 2 µg/mL.
Turning to `Nc1nc(/C(=N/OC(CNC(=O)c2ccc(O)c(O)c2Cl)C(=O)[O-])C(=O)N[C@@H]2C(=O)N3C(C(=O)[O-])=C(C[N+]45CCC(CC4)CC5)CS[C@H]23)c(Cl)s1.[Na+]` (some centres unmarked) [Compound I-15], the MIC stood at 1 µg/mL in assay [1] (setting [7]), 0.25 µg/mL with P. aeruginosa SR24 (setting [8]), 4 µg/mL in assay [2] (setting [10]) and 1 µg/mL in assay [3] (setting [9]).
For `CC1(C)CCc2ccc[n+](CC3=C(C(=O)[O-])N4C(=O)[C@@H](NC(=O)/C(=N\O[C@@H](CNC(=O)c5ccc(O)c(O)c5Cl)C(=O)[O-])c5csc(N)n5)[C@H]4SC3)c21.[Na+]` [Compound I-14], the MIC in assay [1] (setting [7]) was determined as 0.5 µg/mL; with P. aeruginosa SR24 (setting [8]) it was 0.5 µg/mL; in assay [3] (setting [9]), 1 µg/mL.
As for `C[N+]1(CC2=C(C(=O)[O-])N3C(=O)[C@@H](NC(=O)/C(=N\OC(CNC(=O)c4ccc(O)c(O)c4Cl)C(=O)[O-])c4csc(N)n4)[C@H]3SC2)[C@@H]2CCC[C@H]1CC2.[Na+]` (some centres unmarked) [Compound I-10], the MIC came out at 1 µg/mL in assay [1] (setting [4]), 0.25 µg/mL in the assay on P. aeruginosa SR24 (setting [5]), 2 µg/mL in assay [2] and 0.5 µg/mL in assay [3] (setting [6]).
For `Nc1nc(/C(=N/OC(CNC(=O)c2ccc(O)c(O)c2Cl)C(=O)[O-])C(=O)N[C@@H]2C(=O)N3C(C(=O)[O-])=C(C[N+]45CCCC4CCC5)CS[C@H]23)cs1.[Na+]` (some centres unmarked) [Compound I-24], the MIC in assay [1] (setting [7]) was found to be 1 µg/mL; in the assay with P. aeruginosa SR24 (setting [8]) it was 0.5 µg/mL; in assay [2] (setting [10]), 16 µg/mL; in assay [3] (setting [9]), 0.5 µg/mL.
Regarding `C[N+]1(CC2=C(C(=O)[O-])N3C(=O)[C@@H](NC(=O)/C(=N\O[C@@H](CNC(=O)c4ccc(O)c(O)c4Cl)C(=O)[O-])c4csc(N)n4)[C@H]3SC2)CC2CCCC2C1.[Na+]` (some centres unmarked) [Compound I-11], the MIC in assay [1] (setting [7]) was determined as 1 µg/mL; in the assay on P. aeruginosa SR24 (setting [8]), 0.25 µg/mL; in assay [2] (setting [10]), 4 µg/mL; in assay [3] (setting [9]), 4 µg/mL.
With `CC1(C)CCc2ccc[n+](CC3=C(C(=O)[O-])N4C(=O)[C@@H](NC(=O)/C(=N\OC[C@H](NC(=O)c5ccc(O)c(O)c5Cl)C(=O)[O-])c5csc(N)n5)[C@H]4SC3)c21.[Na+]` [Compound I-4], the results for the MIC (in assay [1] (setting [7]); in the assay with P. aeruginosa SR24 (setting [8])) were 0.5 µg/mL and 0.125 µg/mL, respectively.
In the same order, the values of `NCC[N+]1(CC2=C(C(=O)[O-])N3C(=O)[C@@H](NC(=O)/C(=N\OCc4ccc(O)c(O)c4C(=O)O)c4csc(N)n4)[C@H]3SC2)CCCC1` [Compound I-19] are 8 µg/mL (≈ 12.1 µM) and 0.5 µg/mL (≈ 0.756 µM).

The values are drawn from patent US9290515B2, “Cephem derivative having catechol group” (SHIONOGI & CO., LTD., priority 2011, dated 2016).
